From the CheMixHub ionic liquid set

Experiment: xn = mol fraction of the nth substance listed

CCCCn1cc[n+](C)c1.O=S(=O)([N-]S(=O)(=O)C(F)(F)F)c1ccc[cH-]1.[Fe+2].c1cc[cH-]c1 + CCCC[n+]1ccn(C)c1.O=S(=O)([N-]S(=O)(=O)C(F)(F)F)C(F)(F)F
Details | viscosity [mPa·s]
298.15 K, 100 kPa, x2 = 0.749 | 184.5

CCO + CCCC[n+]1ccn(C)c1.O=S(=O)([N-]S(=O)(=O)C(F)(F)F)C(F)(F)F
100 kPa, x2 = 0
Details | viscosity [mPa·s]
297.55 K | 1.11
297.85 K | 1.1
298.15 K | 1.1
301.48 K | 1.04
303.3 K | 1.01
309.67 K | 0.91
312.7 K | 0.86
313 K | 0.86
313.3 K | 0.85
313.61 K | 0.85
316.33 K | 0.8
319.36 K | 0.76
319.67 K | 0.76

Cc1ncc(CO)c(CO)c1O.Cl + CCCC[n+]1ccn(C)c1.[Br-] + O
viscosity [mPa·s], 100 kPa
Details | x1 = 0.0002684, x2 = 0 | x1 = 0.0005421, x2 = 0 | x1 = 0.0008084, x2 = 0 | x1 = 0.001085, x2 = 0 | x1 = 0.001353, x2 = 0 | x1 = 0.001621, x2 = 0
293.15 K | 1.007 | 1.012 | 1.017 | 1.022 | 1.027 | 1.032
298.15 K | 0.895 | 0.9 | 0.905 | 0.91 | 0.915 | 0.921
303.15 K | 0.801 | 0.806 | 0.811 | 0.816 | 0.821 | 0.826
308.15 K | 0.722 | 0.727 | 0.732 | 0.737 | 0.741 | 0.747
313.15 K | 0.657 | 0.662 | 0.667 | 0.671 | 0.676 | 0.681

CCO + CCCC[n+]1ccn(C)c1.[Cl-]
Details | viscosity [mPa·s]
303.15 K, 101 kPa, x1 = 1 | 0.99

CCO + CCCC[n+]1ccn(C)c1.[I-]
Details | electrical conductivity [S/m]
298.15 K, 100 kPa, x2 = 0 | 3.98e-05

CC[S+](CC)CC.O=S(=O)([N-]S(=O)(=O)C(F)(F)F)C(F)(F)F + CCCO
Details | viscosity [mPa·s]
313.15 K, 100 kPa, x1 = 0.6987 | 10.75

CCCCCC[N+]1(C)CCCC1.O=S(=O)([N-]S(=O)(=O)C(F)(F)F)C(F)(F)F + CCC[N+]1(C)CCCC1.O=S(=O)([N-]S(=O)(=O)C(F)(F)F)C(F)(F)F
101 kPa
Details | electrical conductivity, 313.15 K [S/m] | electrical conductivity, 353.15 K [S/m] | viscosity, 313.15 K [mPa·s] | viscosity, 353.15 K [mPa·s]
x1 = 0.25 | 0.581 | – | 38.6 | –
x1 = 0.5 | – | 1.23 | – | 13.2

Oc1cccc(O)c1O + CCC[N+](CCC)(CCC)CCC.[Br-]
101.3 kPa, x2 = 0.5
Details | electrical conductivity [S/m] | viscosity [mPa·s]
293.15 K | 0.00158 | 36500
298.15 K | 0.00309 | –
303.15 K | 0.00531 | 17000
308.15 K | 0.0126 | 11500
313.15 K | 0.0186 | 6800
333.15 K | 0.0967 | 850

CCO + CCOC(C)(C)C + CCOS(=O)(=O)[O-].CC[n+]1ccn(C)c1
Details | viscosity [mPa·s]
298.15 K, 101 kPa, x1 = 1, x2 = 0 | 1.077

CCO + CCOP(=O)([O-])OCC.CC[N+]1(C)CCCC1
100 kPa, x2 = 0
Details | viscosity [mPa·s]
293.15 K | 1.18
298.15 K | 1.11
303.15 K | 0.98
308.15 K | 0.89
313.15 K | 0.82
318.15 K | 0.75
323.15 K | 0.69
328.15 K | 0.65
333.15 K | 0.6
338.15 K | 0.56
